Legend:
MPTP-treated marmosets = conditions: in vivo; cited from earlier work
PD patients with LID [1] = assay: PD Home Dyskinesia eDiary (good ON time); type: in vivo, human
Description: A PD Home Dyskinesia Diary (electronic) would be completed by the patients and/or caregiver with concordance in ON time with dyskinesia between study staff and patient. The diary is integrated in the Kinesia 360 wearable dyskinesia assessment system and is based on the PD Home Diary developed by Hauser (Hauser […]. Parkinson's Disease Home Diary: Further Validation and Implications for Clinical Trials. Mov. Discord. 19 (12), 2004). The diary would be used to score 5 different conditions in 30-minute time intervals during 2×24 hours prior to Visit 2, Visit 6 and Visit 7: • ASLEEP; • OFF; • ON (i.e., adequate control of PD symptoms) without dyskinesia; • ON with non-troublesome dyskinesia; • ON with troublesome dyskinesia.

clinical = conditions: human, in vivo
Description: Blood was collected for NLX-112 plasma concentration measurements on Days 14, 21, 28, 42 and 70 (Visits 4, 5, 6, 7 and 9).
The concentration of NLX-112 was determined in 120 human plasma samples collected from the clinical study. The bioanalysis was performed in the calibration range of 1.0 ng/ml to 1620 ng/ml using a 35 μL sample volume.
The Qualification Runs 1 and 2 contained two calibration curves, six sets of QC samples at eight levels (QC1 to QC8), as well as UPLC and Tecan Carry-over test samples. The analytical run 1 contained two calibration curves, four sets of QC samples at three levels (QC L, M and H), as well as […] and Tecan Carry-over test samples. The qualification and analysis was performed in an exploratory setting.
The analytical instrumentation consisted of an Acquity UPLC system coupled to a Xevo-TQS micro tandem quadrupole mass spectrometer (Waters Corp., Milford, MA, USA). […]
A combined calibration curve was constructed from the two sets of calibration samples for each run. […] The lower limit of quantification (LLOQ) for the method was 1.0 ng/mL and the upper limit of quantification (ULOQ) was 1620 ng/mL of NLX-112 in human plasma.
The mean NLX-112 blood plasma concentration measured in treated patients on study days 14 (Visit 4), […] (Visit 5), 28 (Visit 6), 42 (Visit 7), and 70 (Visit 9) is shown in Table 5. […]

striatal 5-HT release = conditions: rat, in vivo; cited from earlier work
PD patients with LID [2] = assay: King's Parkinson's Disease Pain Scale (KPPS); type: in vivo, human; conditions: for KPPS, mean change from baseline: per-protocol set, p < 0.01 vs baseline
Description: The KPPS is a rater-interview-based scale conducted with the patient and caregiver (if available). It is a 14-item scale covering 7 domains of pain: • z. Musculoskeletal pain • aa. Chronic pain • bb. Fluctuation-related pain • cc. Nocturnal pain • dd. Orofacial pain • ee. Edema/swelling; discoloration • ff. Radicular pain Each item is scored by severity (0-3; none to very severe) multiplied by frequency (0-4; never to all the time), for an item sub score of 0-12, resulting in a total score from 0 to 168. Ratings are based on the previous month, or in the case of this study, the intervening period since the previous clinic visit (about 3 weeks). Treatment effects would be analyzed as change from baseline for total score and for individual pain domains.

Cc1ccc(CNCC2(F)CCN(C(=O)c3ccc(F)c(Cl)c3)CC2)nc1 [NLX-112, (3-chloro-4-fluoro-phenyl)-[4-fluoro-4-{[(5-methyl-pyridin-2-ylmethyl)-amino]-methyl}piperidin-1-yl]methanone]
disability scores (MPTP-treated marmosets): reduces disability scores | good ON time, mean absolute change from baseline (PD patients with LID [1]; Day 28, n=13, eDiary): +5.7% | good ON time, significance of change from baseline within or between groups (PD patients with LID [1]; Day 28 or Day 42): no statistically significant changes | good ON time, mean absolute change from baseline (PD patients with LID [1]; Day 42, n=12, eDiary): +5.2% | concentration at 14 day (clinical): 32.3 ng/mL | concentration at 25 day (clinical): 38.7 ng/mL | striatal 5-HT release and dopamine surge following L-DOPA (striatal 5-HT release): inhibited striatal 5-HT release and blunted the ‘dopamine surge’ | KPPS total score (reported pain), change from baseline (PD patients with LID [2]; Day 42, also seen with placebo): statistically significant improvement | KPPS, mean (PD patients with LID [2]; per-protocol set (n = 15), Baseline): 16.0 | KPPS, mean change from baseline (PD patients with LID [2]; Δ D 28 (end of up-titration)): −4.6 | KPPS, mean change from baseline (PD patients with LID [2]; Δ D 42 (end of stable dosing)): −4.8

Reference: patent US20250295648A1 (priority 2024, published 2025)
